Reference: doi:10.1101/2025.04.25.650653, “Hierarchical small molecule inhibition of MYST acetyltransferases” (bioRxiv, 2025)
Several values for one entry are separate records, joined by “and”; a condition that tells them apart may be missing. Identical values can stand only once.

Columns and labels:
[1] = system: MYST KAT complexes (KAT7, KAT8, KAT5) in HeLa nuclear extracts; test: Competitive chemoproteomic profiling (H3K14-CoA affinity capture) of native MYST complexes; assay type: binding
Experimental: Proteins belonging to multiple KAT complexes are characterized by distinct competition profiles.
The beads were washed three times
during the bead coating step.
hours with end-over-end mixing.
After magnetic separation for 3 minutes,
conditions, and both eluates were combined.
Membranes were probed with antibodies

H4K16Ac (KAT8) = test: Histone acetylation biomarker western blot, MCF-7; assay type: cell-based; conditions: MCF-7 cells, 24 h, up to 30 μM
Experimental: Target engagement was assessed using the panel of MYST-dependent histone acetylation biomarkers defined above. […] While WM-3835 has been applied to study KAT7, its initial publication alludes to its ability to inhibit both KAT6A/B and KAT7.[14], [43] […] All commercial vendors currently market WM-3835 as a KAT7 inhibitor.
General materials and methods
Total protein on western blots was […]
manufacturer's protocols.
KAT capture and competitive chemoproteomic profiling […]
for 2 hours, then lyophilized.
12 μL triethylamine. […] The beads were then magnetically separated […]
distinguish between tightly grouped and diffuse clusters, compactness was quantified by calculating the average pairwise Euclidean distance between all points within each cluster. Clusters with lower average

NCI-60 cell line panel = test: NCI-60 cell line screen, sulforhodamine B growth inhibition; assay type: cell-based, human; conditions: 48 h
H3K14Ac (KAT7) = test: Histone biomarker bottom-up LC-MS/MS, MCF-7; assay type: cell-based; conditions: for Ratio, H3_9_17 K9me1K14ac / Ratio, H3_9_17 K9me2K14ac / Ratio, H3_9_17 K14ac: Replicates 1-3
BT-549 cells = test: NCI-60 cell line screen, sulforhodamine B growth inhibition; assay type: cell-based, human; conditions: BT-549, 10 and 100 μM, 48 h
Source text: As a comparator we used growth inhibition caused by treatment of cells with CPI-1612,[45], [46] a potent inhibitor of the EP300/CREBBP (KAT3A/B), widely regarded as the master regulator of protein acetylation.
Figure 6. […] (C) Dependence of breast cancer cell lines on non-MYST KATs (EP300, CREBBP), MYST KATs (KAT6A, KAT6B, KAT7, KAT8, KAT5), and a MYST KAT complex member (BRPF1) derived from on DepMap CRISPR screening data. BT-549 is highlighted in orange. Lower CERES score indicates a greater dependence of the cell line on the specified gene. […] Data is representiative of n=2 biological replicates.
(0.01, 0.1, 1, 10, 100 μM) for 48 hours and analyzed by sulforhodamine B assay for growth inhibition as previously described.12-14 o validate the NCI-60 relative activity trends using an orthogonal method, we […]
0.94, 0.47, 0.23, 0 μM) for 96 hours. Experiments were performed in quadruplicate, and cell viability was measured using CellTiter-Glo® Luminescent Cell Viability Assay (Promega, G7572) according to the manufacturer's instructions. Luminescence signals were recorded on a BioTek Synergy 2 plate reader, and results were normalized to vehicle-treated controls (set to 100%). Half-maximal inhibition values (IC₅₀) were determined from nonlinear regression analysis of dose-response curves using GraphPad Prism 9. […]

[2] = system: proteins captured by H3K14-CoA resin from HeLa nuclear extracts; test: Proteome-wide competitive chemoproteomic profiling (H3K14-CoA beads, TMT LC-MS/MS); assay type: binding; conditions: for Log2FC PF9363-100nM / PF9363-0nM / Log2FC PF9363-1000nM / PF9363-0nM / Log2FC PF9363-10000nM / PF9363-0nM: H3K14-CoA beads, TMT
KAT7 = KAT7 (Homo sapiens, UniProt O95251); test: Competitive chemoproteomic profiling (H3K14-CoA affinity capture, western blot and LC-MS/MS); conditions: 0.1 μM, HeLa nuclear extracts
KAT7, sequence (O95251 whole entry): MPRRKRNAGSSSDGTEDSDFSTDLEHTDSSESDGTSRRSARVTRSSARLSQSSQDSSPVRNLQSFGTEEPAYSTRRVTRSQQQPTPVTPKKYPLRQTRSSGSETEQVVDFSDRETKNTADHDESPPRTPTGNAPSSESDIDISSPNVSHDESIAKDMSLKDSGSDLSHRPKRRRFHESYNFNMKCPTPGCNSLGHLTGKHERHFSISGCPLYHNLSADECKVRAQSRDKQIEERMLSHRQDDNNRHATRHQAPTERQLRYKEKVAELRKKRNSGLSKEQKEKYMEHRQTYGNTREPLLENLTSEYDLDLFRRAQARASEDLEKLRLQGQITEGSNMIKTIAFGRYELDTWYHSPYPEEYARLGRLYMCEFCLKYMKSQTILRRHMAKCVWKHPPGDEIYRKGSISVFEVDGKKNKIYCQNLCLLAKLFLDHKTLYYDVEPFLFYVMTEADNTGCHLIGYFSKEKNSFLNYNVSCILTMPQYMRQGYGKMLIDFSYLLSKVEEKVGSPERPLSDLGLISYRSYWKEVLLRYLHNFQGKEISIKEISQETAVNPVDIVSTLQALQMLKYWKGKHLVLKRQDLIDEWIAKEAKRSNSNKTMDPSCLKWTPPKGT

H3K18Ac (KAT3A/B) = test: Histone biomarker bottom-up LC-MS/MS, MCF-7; assay type: cell-based; conditions: for Ratio, H3_18_26 K18ac: Replicates 1-3
H3K9Ac (KAT2A/B) = test: Histone biomarker bottom-up LC-MS/MS, MCF-7; assay type: cell-based; conditions: for Ratio, H3_9_17 K9ac: Replicates 1-3
[3] = KAT marker KAT7, PF-9363 0.1 v 30
[4] = KAT marker KAT7, PF-9363 (0.1 mM)
[5] = KAT marker KAT7, PF-9363 (30 mM)
[6] = MCF-7 cells, 24 h, any concentration (0.1-30 μM)

IC50 (H3K14Ac (KAT7); Homo sapiens, MCF7, MCF-7 cells, 24 h): ~1 µM
Compound: COc1cccc(OC)c1S(=O)(=O)Nc1noc2cc(Cn3cccn3)cc(OC)c12 [PF-9363]
competition of capture of KAT8-containing MSL and NSL complexes and KAT5-containing NuA4 complex ([1]; 1 and 10 μM, HeLa nuclear extracts): competed capture of all CORUM-annotated members | sensitivity of KAT complexes, general order ([1]; HeLa nuclear extracts, chemoproteomic competition): KAT7 > KAT8 > KAT5 | hierarchical inhibition order of native KAT complexes ([1]; chemoproteomic profiling and histone acetylation biomarkers): KAT6A/B > KAT7 >> KAT8 > KAT5 | inhibition of KAT8 (H4K16Ac) (H4K16Ac (KAT8)): able to inhibit KAT8-catalyzed H4K16Ac | GI50 (NCI-60 cell line panel; Homo sapiens, most cell lines of the NCI-60 panel, read-out: half-maximal growth inhibition (GI50)): 10 to 100 µM | tolerance of concentrations expected to primarily effect KAT6 and KAT7 (NCI-60 cell line panel; ≤ 1 μM): generally well-tolerated | Fold-change 0.1 v 30, H3_9_17 K9me1K14ac (H3K14Ac (KAT7); [3]): 5.55 | Fold-change 0.1 v 30, H3_9_17 K9me2K14ac (H3K14Ac (KAT7); [3]): 4.54 | Fold-change 0.1 v 30, H3_9_17 K14ac (H3K14Ac (KAT7); [3]): 4.58 | Average ratio, H3_9_17 K9me1K14ac (H3K14Ac (KAT7); [4]): 0.0218 | Average ratio, H3_9_17 K9me2K14ac (H3K14Ac (KAT7); [4]): 0.1048 | Average ratio, H3_9_17 K14ac (H3K14Ac (KAT7); [4]): 0.0358 | Average ratio, H3_9_17 K9me1K14ac (H3K14Ac (KAT7); [5]): 0.0039 | Average ratio, H3_9_17 K9me2K14ac (H3K14Ac (KAT7); [5]): 0.0231 | Average ratio, H3_9_17 K14ac (H3K14Ac (KAT7); [5]): 0.0078 | Ratio, H3_9_17 K9me1K14ac (H3K14Ac (KAT7); KAT marker KAT7, dose 0.1): 0.01996 and 0.02377 and 0.02171 | Ratio, H3_9_17 K9me2K14ac (H3K14Ac (KAT7); KAT marker KAT7, dose 0.1): 0.087 and 0.123 and 0.1045 | Ratio, H3_9_17 K14ac (H3K14Ac (KAT7); KAT marker KAT7, dose 0.1): 0.03031 and 0.04488 and 0.03226 | Ratio, H3_9_17 K9me1K14ac (H3K14Ac (KAT7); KAT marker KAT7, dose 1): 0.01133 and 0.012 and 0.01281 | Ratio, H3_9_17 K9me2K14ac (H3K14Ac (KAT7); KAT marker KAT7, dose 1): 0.0545 and 0.07102 and 0.04882 | Ratio, H3_9_17 K14ac (H3K14Ac (KAT7); KAT marker KAT7, dose 1): 0.02498 and 0.02856 and 0.02464 | Ratio, H3_9_17 K9me1K14ac (H3K14Ac (KAT7); KAT marker KAT7, dose 10): 0.004127 and 0.006046 and 0.005821 | Ratio, H3_9_17 K9me2K14ac (H3K14Ac (KAT7); KAT marker KAT7, dose 10): 0.02988 and 0.02204 and 0.03567 | Ratio, H3_9_17 K14ac (H3K14Ac (KAT7); KAT marker KAT7, dose 10): 0.01535 and 0.01122 and 0.01409 | Ratio, H3_9_17 K9me1K14ac (H3K14Ac (KAT7); KAT marker KAT7, dose 30): 0.004797 and 0.003603 and 0.003398 | Ratio, H3_9_17 K9me2K14ac (H3K14Ac (KAT7); KAT marker KAT7, dose 30): 0.01983 and 0.02491 and 0.02445 | Ratio, H3_9_17 K14ac (H3K14Ac (KAT7); KAT marker KAT7, dose 30): 0.006424 and 0.008372 and 0.008647 | growth inhibition compared with CPI-1612 (BT-549 cells): greater growth inhibition | competition of capture of NAT10, ESCO1, KAT2B (other clusters) ([2]; 0, 0.1, 1, 10 μM): relatively insensitive | Log2FC PF9363-100nM / PF9363-0nM ([2]; protein BLM (P54132)): 0.02 | Log2FC PF9363-1000nM / PF9363-0nM ([2]; protein BLM (P54132)): 0.03 | Log2FC PF9363-10000nM / PF9363-0nM ([2]; protein BLM (P54132)): 0.05 | concentration at which BRPF3 capture is competed ([2]; protein BRPF3): 10 µM | Log2FC PF9363-100nM / PF9363-0nM ([2]; protein MKI67 (P46013)): -0.01 | Log2FC PF9363-1000nM / PF9363-0nM ([2]; protein MKI67 (P46013)): -0.01 | Log2FC PF9363-10000nM / PF9363-0nM ([2]; protein MKI67 (P46013)): 0.02 | Log2FC PF9363-100nM / PF9363-0nM ([2]; protein NUMA1 (Q14980)): 0.02 | Log2FC PF9363-1000nM / PF9363-0nM ([2]; protein NUMA1 (Q14980)): 0.05 | Log2FC PF9363-10000nM / PF9363-0nM ([2]; protein NUMA1 (Q14980)): 0.06 | Log2FC PF9363-100nM / PF9363-0nM ([2]; protein TRRAP (Q9Y4A5)): -0.05 | Log2FC PF9363-1000nM / PF9363-0nM ([2]; protein TRRAP (Q9Y4A5)): -0.12 | Log2FC PF9363-10000nM / PF9363-0nM ([2]; protein TRRAP (Q9Y4A5)): -0.22 | co-competition of KAT7 JADE complex members (KAT7): caused co-competition of JADE2, MEAF6, and ING4/5 | Fold-change 0.1 v 30, H3_18_26 K18ac (H3K18Ac (KAT3A/B); KAT marker KAT3A/B, PF-9363 0.1 v 30): 1.39 | Average ratio, H3_18_26 K18ac (H3K18Ac (KAT3A/B); KAT marker KAT3A/B, PF-9363 (0.1 mM)): 0.0171 | Average ratio, H3_18_26 K18ac (H3K18Ac (KAT3A/B); KAT marker KAT3A/B, PF-9363 (30 mM)): 0.0123 | Ratio, H3_18_26 K18ac (H3K18Ac (KAT3A/B); KAT marker KAT3A/B, dose 0.1): 0.01666 and 0.01829 and 0.01641 | Ratio, H3_18_26 K18ac (H3K18Ac (KAT3A/B); KAT marker KAT3A/B, dose 1): 0.01874 and 0.01672 and 0.01619 | Ratio, H3_18_26 K18ac (H3K18Ac (KAT3A/B); KAT marker KAT3A/B, dose 10): 0.01831 and 0 and 0.01771 | Ratio, H3_18_26 K18ac (H3K18Ac (KAT3A/B); KAT marker KAT3A/B, dose 30): 0 and 0.0193 and 0.01765 | modulation of H3K18Ac (H3K18Ac (KAT3A/B); [6]): not found to modulate | Fold-change 0.1 v 30, H3_9_17 K9ac (H3K9Ac (KAT2A/B); KAT marker KAT2A/B, PF-9363 0.1 v 30): 1.55 | Average ratio, H3_9_17 K9ac (H3K9Ac (KAT2A/B); KAT marker KAT2A/B, PF-9363 (30 μM)): 0.0036 | Average ratio, H3_9_17 K9ac (H3K9Ac (KAT2A/B); KAT marker KAT2A/B, PF-9363 (0.1 mM)): 0.0056 | Ratio, H3_9_17 K9ac (H3K9Ac (KAT2A/B); KAT marker KAT2A/B, dose 0.1): 0.007813 and 0.000147 and 0.0089 | Ratio, H3_9_17 K9ac (H3K9Ac (KAT2A/B); KAT marker KAT2A/B, dose 1): 0.005499 and 0.002205 and 0.005001 | Ratio, H3_9_17 K9ac (H3K9Ac (KAT2A/B); KAT marker KAT2A/B, dose 10): 0.000496 and 0.002771 and 0.002815 | Ratio, H3_9_17 K9ac (H3K9Ac (KAT2A/B); KAT marker KAT2A/B, dose 30): 0.004671 and 0.003182 and 0.003055 | modulation of H3K9Ac (H3K9Ac (KAT2A/B); [6]): not found to modulate
